Experimental data reported in patent US20230399320A1, “NOVEL CAPSID ASSEMBLY INHIBITOR” (Pelemed Co., Ltd., priority 2020, published 2023).
Where two headings read alike, the source gives them in different places.

Experiments:
[1] = biological target: T1, Cp149 (truncated form of a HBV core protein) (Hepatitis B virus genotype D subtype ayw, UniProt P03146); experiment: Protein based assay: immunoblot analysis of in vitro HBV capsid assembly; assay type: biochemical; details: for inhibition at 10 µM: read-out: Protein based assay (% inhibition, 10 μM); for inhibition at 0.1 µM: read-out: Protein based assay (% inhibition), 0.1 μM; for inhibition at 1 µM: read-out: Protein based assay (% inhibition), 1 μM
T1 construct: Cp149 (amino acids 1-149) is a truncated form of a HBV core protein; histidine tag (cleaved yes); made in house; host or cells: Escherichia coli BL21(DE3)
Description: Cp149 (amino acids 1-149) is a truncated form of a HBV core protein. It was expressed in Escherichia coli, and the expressed protein was purified. The recombinant Cp149 was expressed in E. coli BL21(DE3) cells cultured in LB medium at 37° C. When the culture reached an OD600 of 0.7 to 0.8, expression of the culture was induced with 0.5 mM isopropyl-β-d-thiogalactopyranoside and the culture was cooled to 16° C. After 16 hours, the cells were harvested, flash-frozen in liquid nitrogen, and stored at −80° C. To purify Cp149, thawed cells were resuspended in lysis buffer (20 mM Tris-HCl pH 9.0, 200 mM NaCl, 10 mM imidazole, 10 μg per mL DNaseI, 1 mM phenylmethylsulfonyl fluoride), and treated with ultrasonic waves. The supernatant was loaded onto Ni-NTA affinity resin. Proteins were eluted using a 20 mM to 500 mM imidazole gradient dissolved in lysis buffer. After removing the histidine tag with thrombin, the protein was further purified by HiTrap Q anion exchange chromatography (17115401, GE Healthcare).
To determine the effect on in vitro Cp149 assembly, compounds of the present invention were added to the Cp149-containing suspension. The final concentration of Cp149 was 1 mg per mL, and the compounds of the present invention were added at concentrations of 0.1 to 10 μM. The suspension was mixed with reaction buffer (150 mM HEPES, pH 7.5, 15 mM NaCl) added in a 2:1 ratio. In vitro assembly was performed at 37° C. for 1 hour, and HBV capsid was detected by immunoblot analysis using an anti-HBV core antibody (1:2000, B0586, Dako).

HBV DNA = experiment: Quantitative PCR for measuring HBV DNA in cells (HBV DNA quantification); assay type: cell-based
Description: After treating cells with the indicated compounds, HBV DNA secreted into the medium and intracellular HBV DNA were extracted, purified, and quantified by quantitative PCR. To isolate the secreted HBV DNA, the culture medium was recovered and centrifuged at 15,000×g to remove debris. The medium was diluted 1:1 with phosphate-buffered saline (PBS), and 1 M NaOH solution was added to a final concentration of 0.1 M. The mixture was incubated at 37° C. for 1 hour. The protein was denatured by adding 2M Tris-HCl solution (pH 7.5) to a final concentration of 0.2 M and incubating at 98° C. for 5 minutes. The protein precipitation was removed by centrifugation at 15,000×g, and the supernatant was subjected to PCR with HBV DNA primer and probe sets:
Forward: 5′-[…]-3′, Reverse: 5′-[…]-3′, Probe: 5′-[…]-3′.

[2] = Hepatitis B virus; read-out: HBV DNA quantification (IC50 μM)
[3] = Hepatitis B virus, read-out: HBV DNA quantification (IC50 μM)
[4] = Hepatitis B virus, read-out: HBV DNA quantification

T1 sequence (P03146 1-149): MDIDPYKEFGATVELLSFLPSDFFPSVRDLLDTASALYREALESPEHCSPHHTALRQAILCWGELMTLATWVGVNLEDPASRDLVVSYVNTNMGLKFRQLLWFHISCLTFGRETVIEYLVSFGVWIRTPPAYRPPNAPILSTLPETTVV

SMILES | inhibition at 10 µM [1] [%] | IC50 (HBV DNA; [2]) [µM] | IC50 (HBV DNA; [3]) [µM] | further results
COc1cncc(C(=O)NCCNc2cc(Nc3ccc(N4CCOCC4)cc3)nc([S+](C)[O-])n2)c1 (stereo not drawn) [Compound 5b, 5-methoxy-N-(2-(2-(methylsulfinyl)-6-(4-morpholinophenylamino)pyrimidin-4-ylamino)ethyl)nicotinamide] | 78 | > 10 | – | –
CC(C)(C)OC(=O)N1CCN(c2cc(NCc3ccc(F)cc3)nc(S(C)(=O)=O)n2)CC1 [Compound 22b, tert-butyl 4-(6-(4-fluorobenzylamino)-2-(methylsulfonyl)pyrimidin-4-yl)piperazine-1-carboxylate] | 40 | – | 0.549 | –
COc1ncccc1C(=O)NCCNc1cc(Nc2ccc(N3CCOCC3)cc2)nc(SC)n1 [Compound 4a, 2-methoxy-N-(2-(2-(methylthio)-6-(4-morpholinophenylamino)pyrimidin-4-ylamino)ethyl)nicotinamide] | 23 | > 10 | – | IC50 [1]: 9.8 µM
COc1ncccc1C(=O)NCCNc1cc(Nc2ccc(F)c(F)c2)nc(SC)n1 [Compound 8f, N-(2-(6-(3,4-difluorophenylamino)-2-(methylthio)pyrimidin-4-ylamino)ethyl)-2-methoxynicotinamide] | 37 | – | – | IC50 (HBV DNA; [4]): > 10 µM
COc1ncccc1C(=O)N1CCN(c2cc(Nc3ccc(N4CCOCC4)cc3)nc([S+](C)[O-])n2)CC1 (stereo not drawn) [Compound 14, (2-methoxypyridin-3-yl)(4-(2-(methylsulfinyl)-6-(4-morpholinophenylamino)pyrimidin-4-yl)piperazin-1-yl)methanone] | 33 | > 10 | – | –
CSc1nc(Cl)cc(N(CCc2ccc(F)cc2)c2ccc(N3CCOCC3)cc2)n1 [Compound 10b, 6-chloro-N-(4-fluorophenethyl)-2-(methylthio)-N-(4-morpholinophenyl)pyrimidin-4-amine] | 76 | – | > 10 | –
COc1ncccc1C(=O)N1CCN(c2cc(Nc3ccc(N4CCOCC4)cc3)nc(SC)n2)CC1 [Compound 13, (2-methoxypyridin-3-yl)(4-(2-(methylthio)-6-(4-morpholinophenylamino)pyrimidin-4-yl)piperazin-1-yl)methanone] | 31 | > 10 | – | –
COc1cncc(C(=O)NCCNc2cc(Nc3ccc(N4CCOCC4)cc3)nc(SC)n2)c1 [Compound 4b, 5-methoxy-N-(2-(2-(methylthio)-6-(4-morpholinophenylamino)pyrimidin-4-ylamino)ethyl)nicotinamide] | 37 | > 10 | – | –
COc1ncccc1C(=O)NCCNc1cc(Nc2ccc(Cl)cc2)nc([S+](C)[O-])n1 (stereo not drawn) [Compound 9c, N-(2-(6-(4-chlorophenylamino)-2-(methylsulfinyl)pyrimidin-4-ylamino)ethyl)-2-methoxynicotinamide] | – | – | 0.299 | inhibition at 0.1 µM [1]: 27%; inhibition at 1 µM [1]: 80%
COc1ncccc1C(=O)NCCNc1cc(Nc2ccc(F)cc2)nc([S+](C)[O-])n1 (stereo not drawn) [Compound 9b, N-(2-(6-(4-fluorophenylamino)-2-(methylsulfinyl)pyrimidin-4-ylamino)ethyl)-2-methoxynicotinamide] | – | 0.21 | – | inhibition at 0.1 µM [1]: 32%; inhibition at 1 µM [1]: 83%
CS(=O)(=O)c1nc(Nc2ccc(F)c(Cl)c2)cc(N2CCNCC2)n1 [Compound 26c, N-(3-chloro-4-fluorophenyl)-2-(methylsulfonyl)-6-(piperazin-1-yl)pyrimidin-4-amine] | – | – | 0.189 | inhibition at 0.1 µM [1]: 47%; inhibition at 1 µM [1]: 90%
CS(=O)(=O)c1nc(Nc2cc(F)c(F)c(F)c2)cc(NC2CCNCC2)n1 [Compound 26e, 2-(methylsulfonyl)-N^4-(piperidin-4-yl)-N^6-(3,4,5-trifluorophenyl)pyrimidine-4,6-diamine] | – | 0.19 | – | inhibition at 0.1 µM [1]: 16%; inhibition at 1 µM [1]: 90%
COc1ncccc1C(=O)NCCNc1cc(Nc2ccccc2)nc([S+](C)[O-])n1 (stereo not drawn) [Compound 9a, 2-methoxy-N-(2-(2-(methylsulfinyl)-6-(phenylamino)pyrimidin-4-ylamino)ethyl)nicotinamide] | – | – | 0.484 | inhibition at 0.1 µM [1]: 14%; inhibition at 1 µM [1]: 83%
CC(C)(C)OC(=O)N1CCN(c2cc(Nc3ccc(Br)cc3)nc(S(C)(=O)=O)n2)CC1 [Compound 22e, tert-butyl 4-(6-(4-bromophenylamino)-2-(methylsulfonyl)pyrimidin-4-yl)piperazine-1-carboxylate] | 67 | – | 0.652 | –
COc1ncccc1C(=O)NCCNc1cc(Nc2ccc(F)cc2Cl)nc(S(C)(=O)=O)n1 [Compound 9i, N-(2-(6-(2-chloro-4-fluorophenylamino)-2-(methylsulfonyl)pyrimidin-4-ylamino)ethyl)-2-methoxynicotinamide] | 43 | – | > 10 | –
CC(C)(C)OC(=O)N1CCN(c2cc(NCc3ccc(Cl)cc3)nc(S(C)(=O)=O)n2)CC1 [Compound 22d, tert-butyl 4-(6-(4-chlorobenzylamino)-2-(methylsulfonyl)pyrimidin-4-yl)piperazine-1-carboxylate] | 55 | – | 5.08 | –
CSc1nc(N)cc(N(Cc2ccc(F)cc2)c2ccc(N3CCOCC3)cc2)n1 [Compound 11a, N^4-(4-fluorobenzyl)-2-(methylthio)-N^4-(4-morpholinophenyl)pyrimidine-4,6-diamine] | 71 | > 10 | – | –
COc1ncccc1C(=O)NCCNc1cc(Nc2ccc(F)c(F)c2)nc([S+](C)[O-])n1 (stereo not drawn) [Compound 9f, N-(2-(6-(3,4-difluorophenylamino)-2-(methylsulfinyl)pyrimidin-4-ylamino)ethyl)-2-methoxynicotinamide] | 38 | – | > 10 | –
COc1ncccc1C(=O)NCCNc1cc(Nc2ccc(I)cc2)nc([S+](C)[O-])n1 (stereo not drawn) [Compound 9e, N-(2-(6-(4-iodophenylamino)-2-(methylsulfinyl)pyrimidin-4-ylamino)ethyl)-2-methoxynicotinamide] | 37 | > 10 | – | –
CC(C)(C)OC(=O)N1CCN(c2cc(Nc3cc(F)c(F)c(F)c3)nc(S(C)(=O)=O)n2)CC1 [Compound 22h, tert-butyl 4-(2-(methylsulfonyl)-6-(3,4,5-trifluorophenylamino)pyrimidin-4-yl)piperazine-1-carboxylate] | 96 | – | 0.577 | –
CS(=O)(=O)c1nc(Nc2ccc(F)cc2)cc(Nc2ccc(F)cc2)n1 [Compound 18a, N^4,N^6-bis(4-fluorophenyl)-2-(methylsulfonyl)pyrimidine-4,6-diamine] | 49 | 6.4 | – | –
CC(C)(C)OC(=O)N1CCN(c2cc(Nc3ccc(F)cc3)nc(S(C)(=O)=O)n2)CC1 [Compound 22a, tert-butyl 4-(6-(4-fluorophenylamino)-2-(methylsulfonyl)pyrimidin-4-yl)piperazine-1-carboxylate] | 68 | – | 0.831 | –
COc1ncccc1C(=O)NCCNc1cc(Nc2ccc(Br)cc2)nc(SC)n1 [Compound 8d, N-(2-(6-(4-bromophenylamino)-2-(methylthio)pyrimidin-4-ylamino)ethyl)-2-methoxynicotinamide] | 76 | – | – | IC50 (HBV DNA; [4]): > 10 µM
CS(=O)(=O)c1nc(Nc2ccc(F)c(Br)c2)cc(N2CCC(N)CC2)n1 [Compound 26j, 6-(4-aminopiperidin-1-yl)-N-(3-bromo-4-fluorophenyl)-2-(methylsulfonyl)pyrimidin-4-amine] | – | 0.48 | – | inhibition at 0.1 µM [1]: 10%; inhibition at 1 µM [1]: 98%
COc1ncccc1C(=O)NCCNc1cc(Nc2ccc(Br)cc2)nc([S+](C)[O-])n1 (stereo not drawn) [Compound 9d, N-(2-(6-(4-bromophenylamino)-2-(methylsulfinyl)pyrimidin-4-ylamino)ethyl)-2-methoxynicotinamide] | – | – | 0.177 | inhibition at 0.1 µM [1]: 27%; inhibition at 1 µM [1]: 82%
CS(=O)(=O)c1nc(Cl)cc(Nc2ccc(F)cc2F)n1 [Compound 16a, 6-chloro-N-(2,4-difluorophenyl)-2-(methylsulfonyl)pyrimidin-4-amine] | 85 | – | > 10 | –
